Source: patent US20140255358A1, “GENERATION OF IMMUNOSUPPRESSIVE MYELOID CELLS USING PGE2” (priority 2011, published 2014)

Assays:
Assay type in all cases: cell-based, human
[1] = test system: myeloid suppressive cells; assay: Induction of immunosuppressive factor mRNA by PGE2 and EP agonists (FIG. 3)
Source text: FIG. 3. PGE2, EP4 and EP2 agonists mediate enhanced development of MDSCs. […] All data were confirmed in 3-7 independent experiments. Bar graphs present data of a single representative experiment with different donors as mean±s.d.

[2] = test system: differentiating monocytes; assay: Six-day GM-CSF and IL-4-supplemented cultures of differentiating monocytes: phenotype, suppressive factors, CD8+ T cell suppression (FIG. 2)
Source text: PGE2 acts on four subtypes of G protein-coupled receptors designated EP1, EP2, EP3, and EP4, among which EP2 and EP4 signaling is coupled to rise in cAMP concentration.
FIG. 2. PGE2 redirects DC differentiation and induces CD14^+CD33^+CD34^+ cells with the phenotype and function similar to monocytic MDSCs. (A) Phenotype of PGE2-induced CD1a^−CD14^+CD80^−CD83^− suppressive cells expressing inhibitory molecules ILT2, ILT3, ILT4, PDL-1, but not PDL-2. PGE2-induced suppressive cells express E-prostanoid receptors (labeled with α-EP1-, α-EP3- sec.Alexa488 and α-EP2-, α-EP4-PE). […] (bottom) Expression of immunosuppressive factors IL10, IDO1, IL4Rα and COX2 in PGE2-induced suppressive cells. (C) Immunosuppressive effects of PGE2-induced suppressive cells on allogeneic naïve CFSE-labeled CD8^+ T cells primed by CD3/CD28 and stained for granzyme B. Left panel: Percentages indicate the fraction of proliferating granzyme B^+ (marker of CTL status) CD8^+ cells. Right panel: Percentage of proliferating CD8^+ T cells in the presence of PGE2-induced suppressive cells (PGE2-d0) and PGE2-conditioned DCs (PGE2-d6). All data (panels A-C) were confirmed in at least 3 independent experiments. Bar graphs present data of a single representative experiment with different donors as mean±s.d. P<0.05 marked *; P<0.01 marked **; P<0.001 marked ***.

[3] = test system: suppressive cells; assay: Yield of ex vivo generated cells (FIG. 5); details: N=12 donors, mean
Source text: Yield of PGE2-induced myeloid suppressive cells was similar as the yield of iDCs and TNF-a matured DCs (FIG. 5). FIG. 5. PGE2 allows for ex vivo generation of high numbers of suppressive cells. […] Histograms present data of individual experiments (N=12) with different donors as mean±s.d.

[4] = test system: PGE2-induced myeloid suppressive cells; assay: Dose-dependent induction of immunosuppressive factors with or without IL-4 (FIG. 4); details: presence or absence of IL-4
Source text: FIG. 4 Minimal requirement for high doses of PGE2 in the functional induction of myeloid suppressive cells, regardless of the presence or absence of IL-4. (A) Dose-dependent expression of immunosuppressive factors IL10, IDO1, IL4Rα and COX2 in PGE2-induced suppressive cells, generated in the presence or absence of IL-4. Histograms present data of a single representative experiment with different donors as mean±s.d.

[5] = test system: monocytes isolated from healthy blood donors; assay: Induction of COX2 and suppressive factors in short-term cultured monocytes (FIG. 1)
Method: FIG. 1. The induction of endogenous COX2 and MDSC-associated suppressive factors in monocytes by PGE2. (A) Expression of COX2 mRNA (A, left) and protein (A, right) levels in monocytes isolated from healthy blood donors is induced by synthetic PGE2. Regulation of COX1 and COX2 expression by synthetic PGE2 was analyzed after 6-10 h. […] All data (panels A-B) were confirmed in at least 3 independent experiments. Bar graphs present data of a single representative experiment with different donors as mean±s.d. P<0.05 marked *; P<0.01 marked **; P<0.001 marked ***.

## CCCC1([C@H](O)C/C=C/[C@H]2[C@H](O)CC(=O)[C@@H]2CCCCCCC(=O)OC)CCC1 [Butaprost]
[1]
  induction of immunosuppressive factors arginase, IDO1, NOS2, IL-4Rα, IL10 and COX2 mRNA: induced high levels

## O=C1CC[C@H](/C=C/[C@@H](O)Cc2ccccc2)N1CCCCCCc1nn[nH]n1 [CAY10598]
[1]
  induction of immunosuppressive factors arginase, IDO1, NOS2, IL-4Rα, IL10 and COX2 mRNA: induced high levels

## CCCCC[C@H](O)/C=C/[C@H]1[C@H](O)CC(=O)[C@@H]1C/C=C\CCCC(=O)O [PGE2, (5Z,11 alpha,13E,15S)-11,15-dihydroxy-9-oxoprosta-5,13-dien-1-oic acid]
[2]; added to GM-CSF and IL-4-supplemented cultures of differentiating monocytes
  induction of CD1a+CD14- DCs: abolished the induction of CD1a^+CD14^− DCs
[2]; added to GM-CSF/IL-4-supplemented monocyte cultures
  CTL-suppressive function: sufficient to induce the CTL-suppressive function
[2]; after 6 days of culture
  IL-10 production: 261 pg/mL
[3]
  yield of cells: 48.6%
[4]
  induction of IL4Rα: less pronounced, but also significant
  production of IL-10, ARG-1, NOS2 and IDO1: dose-dependently induced
[1]
  induction of immunosuppressive factors arginase, IDO1, NOS2, IL-4Rα, IL10 and COX2 mRNA: Induction of immunosuppressive factors
[5]
  expression of additional immunosuppressive factors IDO1, NOS2, IL-10, IL4Rα: induced the expression
[5]; analyzed after 6-10 h
  expression of endogenous COX2: start expressing endogenous COX2

## TNF-α
[3]
  yield of cells: 36.9%
